We go through ten compounds from patent publication US6569878B1, “Substituted 4-amino-thiazol-2-yl compounds as cyclin-dependent kinase inhibitors” (Agouron Pharmaceuticals Inc., priority 1997, dated 2003).

For one assay, the system named is MDA-MB-468. Briefly: Inhibition of cell growth, MTT assay, MDA-MB-468. Type of assay: cell-based. The settings on record: Homo sapiens; MDA-MB-468, MTT assay. The method, then: (§1) The water-insoluble purple formazan product was then detected spectrophotometrically. […] Plates were incubated for four hours before addition of inhibitor compounds. Different concentrations of inhibitor compounds were added in 0.5% (v/v) dimethylsulfoxide (15 μL/well), and cells were incubated at 37° C. (5% CO2) for four to six days (depending on cell type). At the end of the incubation, MTT was added to a final concentration of 0.2 mg/mL, and cells were incubated for 4 hours more at 37° C. After centrifugation of the plates and removal of medium, the absorbance of the formazan (solubilized in dimethylsulfoxide) was measured at 540 nm.

For a further assay, the system named is MCF-7. The assay is described as follows: Inhibition of cell growth, MTT assay, MCF-7. Type of assay: cell-based. As to conditions: MCF-7, MTT assay; for IC50 / IC90: Homo sapiens, MCF7. The protocol:
as §1

The test system of the next assay is HCT116. The assay is described as follows: Inhibition of cell growth, MTT assay, HCT116. As to conditions: for IC50 / IC90: Homo sapiens, HCT-116. The class given is cell-based, human. An outline of the steps: (§2)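 Cells rested 4 h after plating, then exposed to graded compound concentrations in 0.5% (v/v) DMSO for four to six days (cell-type dependent) at 37° C, 5% CO2. Viability was read by MTT (0.2 mg/mL final, 4 h at 37° C), with DMSO-solubilized formazan measured at 540 nm.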

In the next assay the test system is U2-OS. Briefly: Inhibition of cell growth, MTT assay, U2-OS. Type of assay: cell-based. The settings on record: for IC50 / IC90: Homo sapiens, U2OS. An outline of the steps: as §2
Assay [1] concerns the target T1, human CDK1 (cdc2) and cyclin B (Homo sapiens, UniProt P06493).
T1 construct: purchased New England Biolabs (Beverly Mass.)
The assay is described as follows: Inhibition of CDK1(cdc2)/cyclin B histone H1 kinase activity. Type of assay: biochemical. As to conditions: read-out: Ki CDK 1/B. In outline: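 CDK1/cyclin B (commercial, or CDK1/GST-cyclin B1 from co-infected insect cells) phosphorylated histone H1 with 25 μM [32/33P]ATP at pH 7.4, 30° C for 20 min, 2% DMSO. Product captured on phosphocellulose and read by phosphorimager; apparent Ki from competitive or tight-binding fits, with Km for ATP determined.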

Another assay concerns Saos-2. Briefly: Inhibition of cell growth, MTT assay, Saos-2. The settings on record: Homo sapiens; Saos-2, MTT assay. The class given is cell-based. In outline:
as §2

The target in a further assay is T2, CDK2/cyclin A (Homo sapiens, UniProt P24941).
T2 construct: made in house; host or cells: CDK2: insect cells (baculovirus); cyclin A: E. coli, then limited proteolysis
Briefly: Inhibition of CDK2/cyclin A retinoblastoma kinase activity. Type of assay: biochemical. As to conditions: read-out: Ki CDK 2/A. In outline: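 Baculovirus-expressed CDK2 with excess proteolyzed cyclin A (or purified complex), 150 nM or 5 nM, phosphorylating an Rb fragment with 25 μM [32/33P]ATP, pH 7.4, 30° C, 20 min. Filter-captured radioactivity by phosphorimager; apparent Ki from fits to competitive or tight-binding competitive inhibition using measured ATP Km.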

Another assay deals with SW-480. Briefly: Inhibition of cell growth, MTT assay, SW-480. The class given is cell-based. As to conditions: Homo sapiens, SW480; SW-480, MTT assay. The method, then:
Inhibition of cell growth was measured using the tetrazolium salt assay, which is based on the ability of viable cells to reduce 3-(4,5-dimethylthiazol-2-yl)-2,5-[2H]-diphenyltetrazolium bromide (MTT) to formazan (Mossman, Journal of Immunological Methods, vol. 65 (1983), pp. 55-58). The water-insoluble purple formazan product was then detected spectrophotometrically. Various cell lines (HCT-116, Saos-2, U2-OS, SW480, COLO-205, RXF-393, M14, MDA-MB-468, and MCF7) were grown in 96-well plates. Cells were plated in the appropriate medium at a volume of 135 μl/well in either McCoy's 5A Medium (for Saos-2, U2-OS, SW480, and HCT-116 cells), RPMI (for COLO-205, RXF-393, M14 cells), or Minimum Essential Medium Eagle (for MDA-MB-468 and MCF7 cells). Plates were incubated for four hours before addition of inhibitor compounds. Different concentrations of inhibitor compounds were added in 0.5% (v/v) dimethylsulfoxide (15 μL/well), and cells were incubated at 37° C. (5% CO2) for four to six days (depending on cell type). At the end of the incubation, MTT was added to a final concentration of 0.2 mg/mL, and cells were incubated for 4 hours more at 37° C. After centrifugation of the plates and removal of medium, the absorbance of the formazan (solubilized in dimethylsulfoxide) was measured at 540 nm. […] All results were compared to control cells treated only with 0.5% (v/v) dimethylsulfoxide.

The target of assay [2] is T3, complex of human CDK4 and cyclin D3 (Homo sapiens, UniProt P11802).
T3 construct: made in house; host or cells: insect cells, co-infected with baculovirus
T3 sequence (P11802 whole entry): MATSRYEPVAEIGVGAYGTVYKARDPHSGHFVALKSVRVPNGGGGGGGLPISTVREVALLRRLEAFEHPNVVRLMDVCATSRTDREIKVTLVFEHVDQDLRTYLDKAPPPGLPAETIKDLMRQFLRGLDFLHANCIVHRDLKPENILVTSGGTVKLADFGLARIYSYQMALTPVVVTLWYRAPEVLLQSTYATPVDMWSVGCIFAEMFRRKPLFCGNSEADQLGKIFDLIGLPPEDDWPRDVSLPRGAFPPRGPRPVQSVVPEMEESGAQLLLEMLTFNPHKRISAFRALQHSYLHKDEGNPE
T3 sequence (P30281 whole entry partner): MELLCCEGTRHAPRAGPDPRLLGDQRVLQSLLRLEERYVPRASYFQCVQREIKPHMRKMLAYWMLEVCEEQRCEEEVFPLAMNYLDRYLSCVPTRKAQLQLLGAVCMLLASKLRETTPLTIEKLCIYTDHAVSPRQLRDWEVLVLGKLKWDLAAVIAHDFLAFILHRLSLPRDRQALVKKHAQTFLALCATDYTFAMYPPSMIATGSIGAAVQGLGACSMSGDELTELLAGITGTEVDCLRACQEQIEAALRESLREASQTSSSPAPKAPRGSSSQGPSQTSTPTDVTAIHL
The assay is described as follows: Inhibition of CDK4/cyclin D retinoblastoma kinase activity (D-type cyclin is D3). The class given is biochemical. As to conditions: superscript a: D-type cyclin is D3; apparent Ki; read-out: Ki CDK 4/D. In outline:
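Apparent Ki derived by fitting background-corrected activity to competitive (or, for tight binders, competitive tight-binding) equations with measured ATP Km. Rb phosphorylation by radiolabelled ATP was measured at 30°C, 20 min standard or 60 min at 5 nM complex for tight binders, via nitrocellulose capture and phosphorimager.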

The target in assay [3] is T4, complex of human CDK4 and genetically truncated (1-264) cyclin D3 (Homo sapiens, UniProt P11802).
T4 construct: made in house; host or cells: insect cells, co-infected with baculovirus
T4 sequence (P11802 whole entry, the tested form may be a part): as the sequence (P11802 whole entry) above
T4 sequence (P30281 1-264 partner limits assumed): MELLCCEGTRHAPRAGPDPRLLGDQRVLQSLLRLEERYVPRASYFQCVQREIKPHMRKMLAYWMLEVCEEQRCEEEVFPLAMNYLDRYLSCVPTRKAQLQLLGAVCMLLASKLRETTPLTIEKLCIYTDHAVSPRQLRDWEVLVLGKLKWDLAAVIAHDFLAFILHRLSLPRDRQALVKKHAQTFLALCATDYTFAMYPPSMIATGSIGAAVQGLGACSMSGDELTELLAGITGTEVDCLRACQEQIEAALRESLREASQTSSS
Briefly: Inhibition of CDK4/cyclin D retinoblastoma kinase activity (D-type cyclin is truncated D3). Type of assay: biochemical. The settings on record: superscript c: D-type cyclin is truncated D3; read-out: Ki CDK 4/D. The method, then:
Cyclin-dependent kinase activity was measured by quantifying the enzyme-catalyzed, time-dependent incorporation of radioactive phosphate from [^32P]ATP or [^33P]ATP into a protein substrate. Unless noted otherwise, assays were performed in 96-well plates in a total volume of 50 μL, in the presence of 10 mM HEPES (N-[2-hydroxyethyl]piperazine-N′-[2-ethanesulfonic acid]) (pH 7.4), 10 mM MgCl2, 25 μM adenosine triphosphate (ATP), 1 mg/mL ovalbumin, 5 μg/mL leupeptin, 1 mM dithiothreitol, 10 mM β-glycerophosphate, 0.1 mM sodium vanadate, 1 mM sodium fluoride, 2.5 mM ethylene glycol-bis(β-aminoethyl ether)-N,N,N′N′-tetraacetic acid (EGTA), 2% (v/v) dimethylsulfoxide, and 0.03-0.4 μCi [^32/33P]ATP per reaction. Reactions were initiated with enzyme, incubated at 30° C., and terminated after 20 minutes by the addition of ethylenediaminetetraacetic acid (EDTA) to 250 mM. The phosphorylated substrate was then captured on a nitrocellulose or phosphocellulose membrane using a 96-well filtration manifold, and unincorporated radioactivity was removed by repeated washing with 0.85% phosphoric acid. Radioactivity was quantified by exposing the dried membranes to a phosphorimager.
Apparent Ki values were measured by assaying enzyme activity in the presence of different inhibitor compound concentrations and subtracting the background radioactivity measured in the absence of enzyme. The kinetic parameters (kcat, Km for ATP) were measured for each enzyme under the usual assay conditions by determining the dependence of initial rates on ATP concentration. Inhibition data were fit to an equation for competitive inhibition using Kaleidagraph (Synergy Software), or were fit to an equation for competitive tight-binding inhibition using the software KineTic (BioKin, Ltd.).
A complex of human CDK4 and cyclin D3, or a complex of cyclin D1 and a fusion protein of human CDK4 and gluathione-S-transferase (GST-CDK4), or a complex of human CDK4 and genetically truncated (1-264) cyclin D3, was purified using traditional biochemical chromatographic techniques from insect cells that had been co-infected with the corresponding baculovirus expression vectors (see e.g., Meijer and Kim, “Chemical Inhibitors of Cyclin-Dependent Kinases,” Methods in Enzymol,. vol. 283 (1997), pp. 113-128.). The enzyme complex (5 or 50 nM) was assayed with 0.3-0.5 μg of purified recombinant retinoblastoma protein fragment (Rb) as a substrate. The engineered Rb fragment (residues 386-928 of the native retinoblastoma protein; 62.3 kDa) contains the majority of the phosphorylation sites found in the native 106-kDa protein, as well as a tag of six histidine residues for ease of purification. Phosphorylated Rb substrate was captured by microfiltration on a nitrocellulose membrane and quantified using a phosphorimager as described above. For measurement of tight-binding inhibitors, the enzyme complex concentration was lowered to 5 nM, and the assay duration was extended to 60 minutes, during which the time-dependence of product formation was linear.

Some results are limits rather than exact numbers.

T1 sequence (P06493 whole entry): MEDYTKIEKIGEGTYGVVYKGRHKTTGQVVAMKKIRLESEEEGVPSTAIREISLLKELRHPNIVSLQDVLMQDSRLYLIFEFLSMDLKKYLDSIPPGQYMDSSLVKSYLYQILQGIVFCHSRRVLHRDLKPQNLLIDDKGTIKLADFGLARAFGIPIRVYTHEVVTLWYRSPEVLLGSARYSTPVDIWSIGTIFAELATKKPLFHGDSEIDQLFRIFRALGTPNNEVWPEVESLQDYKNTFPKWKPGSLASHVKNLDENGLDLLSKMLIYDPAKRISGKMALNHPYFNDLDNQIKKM
T1 sequence (P14635 whole entry partner): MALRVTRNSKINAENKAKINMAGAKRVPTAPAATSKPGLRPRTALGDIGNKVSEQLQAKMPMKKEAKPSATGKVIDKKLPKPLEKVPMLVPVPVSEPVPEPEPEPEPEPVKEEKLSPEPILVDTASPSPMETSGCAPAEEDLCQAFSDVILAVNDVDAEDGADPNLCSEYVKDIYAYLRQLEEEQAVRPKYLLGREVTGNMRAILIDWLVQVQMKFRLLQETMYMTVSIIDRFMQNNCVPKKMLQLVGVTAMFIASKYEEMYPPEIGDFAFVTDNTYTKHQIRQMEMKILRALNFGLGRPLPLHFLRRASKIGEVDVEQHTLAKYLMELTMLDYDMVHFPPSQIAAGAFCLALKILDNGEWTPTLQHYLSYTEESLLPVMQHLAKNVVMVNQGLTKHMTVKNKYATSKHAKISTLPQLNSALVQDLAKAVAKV

As for `COc1ccc(Nc2nc(N)c(C(=O)c3ccccc3[N+](=O)[O-])s2)cc1` [A(10), [4-Amino-2-(4-methoxy-phenylamino)-thiazol-5-yl]-(2-nitro-phenyl)-methanone], the 50% inhibitory concentration (IC50) turned out to be 720 nM in the assay with MDA-MB-468; 650 nM in the assay on MCF-7; 950 nM in the assay with HCT116; 900 nM in the assay on U2-OS; 1300 nM in the assay with Saos-2; 700 nM in the assay with SW-480. The concentration for an effect of 90% (IC90) in the assay with MDA-MB-468 was 1700 nM; with MCF-7, 5500 nM; with HCT116, 1800 nM; in the assay on U2-OS it was 1600 nM; in the assay with Saos-2, 4600 nM; in the assay on SW-480, 7500 nM. The Ki in assay [1] is 57 nM; on CDK2/cyclin A it was 318 nM; in assay [2], 36 nM.
`Cc1c(C(=O)c2sc(Nc3ccc4nc[nH]c4c3)nc2N)sc2ccccc12` [C(8), [4-Amino-2-(1H-benzoimidazol-6-ylamino)-thiazol-5-yl]-(3-methyl-benzo[b]thiophen-2-yl)-methanone]: the IC50 is 6800 nM in the assay on MDA-MB-468; 15000 nM in the assay on MCF-7; 18000 nM with HCT116; 10000 nM in the assay on U2-OS; 6200 nM in the assay on Saos-2; 8300 nM in the assay with SW-480. Also, the IC90 in the assay on MDA-MB-468 is 15000 nM; in the assay on MCF-7, more than 25000 nM; in the assay with HCT116, more than 25000 nM; in the assay on U2-OS, more than 25000 nM; with Saos-2, 18000 nM; in the assay on SW-480, 20000 nM. In addition, the “% inhibition of growth in parentheses after >25” value was “(82%)” in the assay with MCF-7 (concentration not given), 88% in the assay with HCT116 (concentration not given) and 84% in the assay with U2-OS (concentration not given). In addition, the Ki in assay [1] was determined as 97 nM; at CDK2/cyclin A, 389 nM; in [2] it was 27 nM.
Consider `Nc1nc(Nc2ccc(N3CCN(CC4CC4)CC3)cc2)sc1C(=O)c1c(F)cccc1F` [C(121), {4-Amino-2-[4-(4-cyclopropylmethyl-piperazin-1-yl)-phenylamino]-thiazol-5-yl}-(2,6-difluoro-phenyl)-methanone], for which the values for the IC50 in the assay on HCT116, in the assay with U2-OS and with Saos-2 were 2500 nM, 6000 nM and 5100 nM, respectively. The IC90 with HCT116 is 5300 nM; in the assay on U2-OS it was 11000 nM; with Saos-2, 12000 nM. In addition, the Ki in assay [3] worked out at 10.6 nM; on CDK2/cyclin A, 953 nM.
In the case of `Nc1nc(Nc2ccc(-c3ccncc3)cc2)sc1C(=O)c1c(F)cccc1F` [C(122), [4-Amino-2-(4-pyridin-4-yl-phenylamino)-thiazol-5-yl]-(2,6-difluoro-phenyl)-methanone], the 50% inhibitory concentration (IC50) in the assay on HCT116 stood at 1700 nM; in the assay with U2-OS it was 1500 nM; in the assay on Saos-2 it was 3700 nM. Also, the 90% effect concentration (IC90) in the assay with HCT116 was determined as 4800 nM; with U2-OS, 4700 nM; with Saos-2, 10000 nM. The Ki in assay [3] is 35 nM; on CDK2/cyclin A, 165 nM.
In turn, `CN(C)CCCN(C)c1ccc(Nc2nc(N)c(C(=O)c3c(F)cccc3F)s2)cc1` [C(126), (4-Amino-2-{4-[(3-dimethylamino-propyl)-methyl-amino]-phenylamino}-thiazol-5-yl)-(2,6-difluoro-phenyl)-methanone] showed an IC50 in the assay with HCT116 of 600 nM. In the assay with HCT116, this compound yielded a concentration for an effect of 90% (IC90) of 1400 nM. Further, the Ki in [3] came out at 24 nM; on CDK2/cyclin A, 390 nM.
Consider `Nc1nc(Nc2ccc(N3CCN(c4ccncc4)CC3)cc2)sc1C(=O)c1c(F)cccc1F` [C(127)], for which the Ki in assay [3] came to 26 nM; on CDK2/cyclin A, 215 nM.
On the same counts, the results for `CN1CCCN(c2ccc(Nc3nc(N)c(C(=O)c4c(F)cccc4F)s3)cc2)CC1` [C(128), {4-Amino-2-[4-(1-methyl-[1,4]-diazepan-4-yl)-phenylamino]-thiazol-5-yl}-(2,6-difluoro-phenyl)-methanone] are 30 nM and 440 nM.
On the same counts, the results for `CN(CCC#N)c1ccc(Nc2nc(N)c(C(=O)c3c(F)cccc3F)s2)cc1` [C(129), 3-({4-[4-Amino-5-(2,6-difluorobenzoyl)-thiazol-2-yl-amino]-phenyl}-methylamino)-propionitrile] are 64 nM and 270 nM.
Consider `Nc1nc(Nc2ccc(N3CCN(c4ccccn4)CC3)cc2)sc1C(=O)c1c(F)cccc1F` [K, {4-Amino-2-[4-(4-pyridin-2-yl-piperazin-1-yl)-phenylamino]-thiazol-5-yl}-(2,6-difluoro-phenyl)-methanone], for which the concentration for half-maximal inhibition (IC50) with HCT116 is 3500 nM; in the assay with U2-OS it was 3500 nM; with Saos-2, 6000 nM. In addition, the IC90 was 6200 nM in the assay with HCT116, 6000 nM in the assay on U2-OS and 13000 nM in the assay on Saos-2. Also, the Ki is 43 nM in assay [3] and 364 nM on CDK2/cyclin A.
Consider `Nc1nc(Nc2ccc(N3CCC(C(=O)O)CC3)cc2)sc1C(=O)c1c(F)cccc1F` [M, 1-{4-[4-Amino-5-(2,6-difluoro-benzoyl)-thiazol-2-ylamino]-phenyl}-piperidine-4-carboxylic Acid], for which the half-maximal inhibitory concentration (IC50) with HCT116 was more than 25000 nM. Also, the Ki in [3] is 46 nM; on CDK2/cyclin A, 290 nM.
